Reference: ChEMBL document CHEMBL1201862, “PubChem BioAssay data set” (2004)
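All cell lines were grown in 96-well plates and treated with compound for 48 hours. Here, GI50 denotes the concentration required for 50% inhibition of growth.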 The source made the active and inactive calls. Cut-off read from the data, not from the text of the source: active = GI50 up to about 1.1 µM and inactive = higher.

Columns and labels:
Experiment in all cases: growth of human tumour cells (NCI), 48 h
CCRF-CEM = test system: CCRF-CEM
EKVX = test system: EKVX
HCT-116 = test system: HCT-116
HL-60 = test system: HL-60
IGROV-1 = test system: IGROV-1
K562 = test system: K562
LOX IMVI = test system: LOX IMVI
OVCAR-4 = test system: OVCAR-4
OVCAR-5 = test system: OVCAR-5
OVCAR-8 = test system: OVCAR-8
RPMI-8226 = test system: RPMI-8226
SF-539 = test system: SF-539
SNB-19 = test system: SNB-19
SW-620 = test system: SW-620
TK-10 = test system: TK-10
U-251 = test system: U-251
UACC-257 = test system: UACC-257
UO-31 = test system: UO-31

Measured: GI50

O=c1c2cc(-c3ccccc3)sc2nc2sc(-c3ccccc3)nn12
inactive: CCRF-CEM > 100 µM | EKVX > 100 µM | HCT-116 > 100 µM | HL-60 > 100 µM | IGROV-1 > 100 µM | K562 > 100 µM | LOX IMVI > 100 µM | OVCAR-4 > 100 µM | OVCAR-5 > 100 µM | OVCAR-8 > 100 µM | RPMI-8226 > 100 µM | SF-539 > 100 µM | SNB-19 > 100 µM | SW-620 > 100 µM | TK-10 > 100 µM | U-251 > 100 µM | UACC-257 > 100 µM | UO-31 > 100 µM

Cc1ccc2[nH]c(=O)c(C(C#N)c3ccccc3)nc2c1 (stereo unspecified)
inactive: CCRF-CEM 32.7 µM | EKVX 30.5 µM | HCT-116 33.7 µM | IGROV-1 34.2 µM | K562 47.9 µM | LOX IMVI 34.4 µM | OVCAR-4 30.1 µM | OVCAR-5 55.3 µM | RPMI-8226 15.6 µM | SF-539 46.7 µM | SNB-19 27.4 µM | SW-620 43.8 µM | TK-10 > 100 µM | U-251 24.3 µM | UACC-257 59.8 µM | UO-31 27.9 µM

Cc1ccccc1N1C(=O)/C(=C/c2ccc(N(CCC#N)CCC#N)cc2)N=C1c1cc([N+](=O)[O-])ccc1Cl
inactive: CCRF-CEM 48.6 µM | HL-60 35 µM | IGROV-1 > 100 µM | K562 35.8 µM | OVCAR-4 > 100 µM | OVCAR-5 42.1 µM | RPMI-8226 21 µM | SF-539 > 100 µM | SNB-19 > 100 µM | SW-620 > 100 µM | U-251 36 µM | UACC-257 > 100 µM | UO-31 > 100 µM

Cc1ccc(NC(=O)CC(=O)n2nc(C)c(/N=N/c3ccccc3C(=O)O)c2C)cc1
inactive: CCRF-CEM > 100 µM | EKVX > 100 µM | HCT-116 > 100 µM | HL-60 > 100 µM | IGROV-1 > 100 µM | K562 > 100 µM | LOX IMVI > 100 µM | OVCAR-4 > 100 µM | OVCAR-5 > 100 µM | OVCAR-8 > 100 µM | RPMI-8226 > 100 µM | SF-539 > 100 µM | SNB-19 > 100 µM | SW-620 > 100 µM | TK-10 > 100 µM | U-251 > 100 µM | UACC-257 > 100 µM | UO-31 > 100 µM

CC(=O)c1cccc(NC(=O)C(=O)C(C2OC(=O)c3ccccc32)[N+](=O)[O-])c1 (stereo unspecified)
inactive: CCRF-CEM > 100 µM | EKVX > 100 µM | HCT-116 > 100 µM | HL-60 > 100 µM | IGROV-1 > 100 µM | K562 > 100 µM | LOX IMVI > 100 µM | OVCAR-4 > 100 µM | OVCAR-5 > 100 µM | RPMI-8226 > 100 µM | SF-539 > 100 µM | SNB-19 > 100 µM | SW-620 > 100 µM | TK-10 > 100 µM | U-251 > 100 µM | UACC-257 > 100 µM | UO-31 60.1 µM

COc1cc(/C=N/N=C(\N)NO)c([N+](=O)[O-])cc1OC
inactive: CCRF-CEM 41.6 µM | EKVX 18.1 µM | HCT-116 28.6 µM | HL-60 26.8 µM | IGROV-1 53.2 µM | K562 36.5 µM | LOX IMVI 24.2 µM | OVCAR-4 15.2 µM | OVCAR-5 37.2 µM | OVCAR-8 31.7 µM | RPMI-8226 73.8 µM | SF-539 41 µM | SNB-19 79.6 µM | SW-620 47.9 µM | TK-10 69.3 µM | U-251 28.3 µM | UACC-257 73.1 µM | UO-31 35.7 µM

Cc1[nH]c2ccccc2c1C1Cc2ccccc2N1C(=O)/C=C/C(=O)O (stereo unspecified)
inactive: CCRF-CEM > 100 µM | EKVX > 100 µM | HCT-116 > 100 µM | HL-60 > 100 µM | IGROV-1 > 100 µM | K562 > 100 µM | LOX IMVI > 100 µM | OVCAR-4 > 100 µM | OVCAR-5 > 100 µM | OVCAR-8 > 100 µM | SF-539 > 100 µM | SNB-19 > 100 µM | SW-620 > 100 µM | TK-10 > 100 µM | U-251 > 100 µM | UACC-257 > 100 µM | UO-31 > 100 µM

COC(=O)C1(C(=O)OC)CC2c3c(c4ccccc4n3C)CC(C1=O)N2Cc1ccccc1 (stereo unspecified)
inactive: CCRF-CEM > 100 µM | EKVX > 100 µM | HCT-116 > 100 µM | HL-60 96.8 µM | IGROV-1 > 100 µM | K562 > 100 µM | LOX IMVI > 100 µM | OVCAR-4 76.6 µM | OVCAR-5 > 100 µM | OVCAR-8 > 100 µM | RPMI-8226 61.1 µM | SF-539 > 100 µM | SNB-19 > 100 µM | SW-620 > 100 µM | TK-10 > 100 µM | U-251 > 100 µM | UACC-257 > 100 µM | UO-31 > 100 µM

O=C(CSc1nnc(-c2ccc(/N=C\c3ccc(Cl)cc3)cc2)o1)Nc1cccc(Cl)c1
inactive: CCRF-CEM > 100 µM | EKVX > 100 µM | HCT-116 > 100 µM | HL-60 > 100 µM | K562 > 100 µM | LOX IMVI > 100 µM | OVCAR-4 > 100 µM | OVCAR-8 > 100 µM | RPMI-8226 70 µM | SNB-19 > 100 µM | SW-620 > 100 µM | TK-10 > 100 µM | U-251 > 100 µM | UACC-257 > 100 µM | UO-31 > 100 µM

S=C(Nc1ccccc1)N(/N=C/C=C/c1ccccc1)c1nnc(-c2ccccc2)c(-c2ccccc2)n1
inactive: CCRF-CEM 51.2 µM | EKVX 45.4 µM | HL-60 22.4 µM | IGROV-1 > 100 µM | K562 36.6 µM | LOX IMVI 52.1 µM | OVCAR-4 30.5 µM | OVCAR-5 > 100 µM | OVCAR-8 > 100 µM | RPMI-8226 26.1 µM | SF-539 35.7 µM | SNB-19 > 100 µM | SW-620 > 100 µM | TK-10 95.3 µM | U-251 > 100 µM | UACC-257 38.9 µM | UO-31 24.7 µM

CCN(CC)CCCC(C)NC(=O)c1ccc2c(c1)C(=O)c1ccccc1C2=O (stereo unspecified)
inactive: CCRF-CEM 21.7 µM | EKVX 21.3 µM | HCT-116 18.6 µM | HL-60 13.5 µM | IGROV-1 24.9 µM | K562 18.3 µM | LOX IMVI 15.9 µM | OVCAR-4 15.1 µM | OVCAR-5 18.9 µM | OVCAR-8 22.3 µM | RPMI-8226 18.7 µM | SF-539 19.2 µM | SNB-19 21.6 µM | SW-620 13.6 µM | TK-10 24.2 µM | U-251 20.1 µM | UACC-257 11.9 µM | UO-31 20.1 µM

N#Cc1c(N)oc2cc3c(C#N)c(N)oc3cc12
inactive: CCRF-CEM > 100 µM | EKVX > 100 µM | HL-60 > 100 µM | IGROV-1 > 100 µM | K562 > 100 µM | LOX IMVI > 100 µM | OVCAR-4 > 100 µM | OVCAR-5 > 100 µM | OVCAR-8 > 100 µM | RPMI-8226 > 100 µM | SF-539 > 100 µM | SNB-19 > 100 µM | SW-620 > 100 µM | TK-10 > 100 µM | U-251 > 100 µM | UACC-257 > 100 µM | UO-31 > 100 µM

O=C1C2C3C=C4c5ccccc5N(c5ccccc5)C4(C2C(=O)N1c1ccc([N+](=O)[O-])cc1)[C@H]1C(=O)N(c2ccc([N+](=O)[O-])cc2)C(=O)[C@@H]31 (stereo partly specified)
inactive: CCRF-CEM > 100 µM | EKVX > 100 µM | HCT-116 > 100 µM | HL-60 > 100 µM | IGROV-1 > 100 µM | K562 > 100 µM | LOX IMVI > 100 µM | OVCAR-4 > 100 µM | OVCAR-5 > 100 µM | OVCAR-8 > 100 µM | RPMI-8226 > 100 µM | SF-539 > 100 µM | SNB-19 > 100 µM | SW-620 > 100 µM | TK-10 > 100 µM | U-251 > 100 µM | UACC-257 > 100 µM | UO-31 > 100 µM

CCCCCCCCC(C)CCCCCCCCC(=O)OCC(COP(=O)([O-])OCC[N+](C)(C)C)OC(=O)CCCCCCCCC(C)CCCCCCCC (stereo unspecified)
inactive: CCRF-CEM > 100 µM | EKVX > 100 µM | HCT-116 > 100 µM | HL-60 > 100 µM | IGROV-1 > 100 µM | K562 > 100 µM | LOX IMVI > 100 µM | OVCAR-4 > 100 µM | OVCAR-5 > 100 µM | OVCAR-8 > 100 µM | RPMI-8226 > 100 µM | SNB-19 > 100 µM | SW-620 > 100 µM | TK-10 > 100 µM | U-251 > 100 µM | UACC-257 > 100 µM | UO-31 > 100 µM

OC1c2ccccc2C2C(O)c3ccccc3C12 (stereo unspecified)
inactive: CCRF-CEM > 100 µM | EKVX > 100 µM | HL-60 > 100 µM | IGROV-1 > 100 µM | K562 > 100 µM | LOX IMVI > 100 µM | OVCAR-4 > 100 µM | OVCAR-5 > 100 µM | OVCAR-8 > 100 µM | RPMI-8226 > 100 µM | SF-539 > 100 µM | SW-620 > 100 µM | TK-10 > 100 µM | U-251 > 100 µM | UACC-257 > 100 µM | UO-31 > 100 µM

O=C(O)C(=O)/C=C\c1ccc(Cl)cc1
inactive: CCRF-CEM > 100 µM | EKVX > 100 µM | HCT-116 > 100 µM | HL-60 > 100 µM | IGROV-1 > 100 µM | K562 > 100 µM | LOX IMVI > 100 µM | OVCAR-4 > 100 µM | OVCAR-5 > 100 µM | OVCAR-8 > 100 µM | RPMI-8226 > 100 µM | SF-539 > 100 µM | SNB-19 > 100 µM | SW-620 10.6 µM | TK-10 > 100 µM | U-251 66.4 µM | UACC-257 > 100 µM | UO-31 > 100 µM
